In assay [1] the test system is foals, yearlings and adult horses. In words: Example Five: calcium feeding trials at various stages of development. Format: in vivo, horse. The method, then: A number of trials were conducted on horses throughout various stages of development fed with varying levels of calcium. The first two trials were conducted on twelve foals over a nine month period. The trial began when the foals were aged three months. […] Each foal was fed 2.5 g of Calcium a day within a balanced diet for a period of three months. The Calcium dosage was then increased to 5.0 g a day for a further period of six months as the foals average weight had increased to 240 kg.
The third trial comprised a group of ten yearlings with average weight 425 kg body. The yearlings were fed 7.5 g of Calcium a day over a period of ten weeks. The fourth trial was conducted on adult horses with average body weight of 500 kg aged 18+ months. Each adult horse was fed 10.0 g of Calcium per day.

Another assay deals with thoroughbred yearlings. Nature of the assay: Example Three: inorganic versus chelated copper with chelated zinc in feed supplement. Format: in vivo, horse. Conditions: 100 mg/day copper and 300 mg/day chelated zinc in 100 g/day supplement, ten weeks, grass high in molybdenum. The method, then: A trial was conducted on ten thoroughbred yearlings (six colts and four fillies) using optimum levels of copper and zinc. The horses were divided into two groups with five horses in each group. The trials were conducted over a period of ten weeks. During this period the horses were stabled, each horse was handwalked for one hour a day and put to grass for three hours a day.
The copper used in the feed supplement for the first group of five horses was inorganic copper, copper sulfate whilst the copper used in the oat-balancing feed supplement for the second group was chelated copper. The horses has an average body weight of 425 kg. The horses were fed a combined diet of Ryegrass Hay, Rolled Irish Oats, Cooked Flaxseed and the feed supplement.
In trial one, 100 g of the oat balancing feed supplement was fed to each horse daily. There was 100 mg of inorganic copper in present in the oat balancing feed supplement.
Group 1: 100 mg/day Inorganic Copper & 300 mg/day Chelated Zinc
In the second group the five horses were fed the same combined diet however the copper present in the feed supplement was chelated copper. Again there was 100 mg of copper present in 100 g of the oat balancing feed supplement.
Group 2: 100 mg/day Chelated Copper & 300 mg/day Chelated Zinc

Assay [2] concerns poor performing racehorses. Particulars: six anaemic racehorses, within a matter of weeks; cited from earlier work.
Assay [3] concerns horses. In words: Example One: amino acid feeding trial with varied lysine; PCV, haemoglobin, coat colour, racecourse performance. Format: in vivo, horse. Particulars: 15 g/day lysine with 5 g/day methionine and 5 g/day threonine. The method, then:
Lysine, methionine and threonine are essential amino acids. Trials were conducted on eleven horses (eight geldings and three fillies) where the horses were randomly split into three groups. Two groups contained four horses and the third group contained three horses. The horses varied in age between three and eight years old with an average body weight of 500 kg. The Packed Cell Volumes (PCVs) and haemoglobin levels of each horse were tested. Visual observations such as coat colour and racecourse performances were also monitored. In these Example all three amino acids were administered to the horses together as all three amino acids are essential. The quantities of methionine and threonine were constant for each group whilst the quantity of lysine was varied between the groups. Oats are deficient in lysine therefore it is necessary to boost the horses intake of lysine while maintaining a constant level of methionine and threonine
Quantities of Amino Acid Administered to Horses Daily

The subject of assay [4] is horses. In words: Example Four: magnesium supplementation, Stress Tetany and performance. Format: in vivo, horse. The text has this: Magnesium is considered to be an essential daily mineral in equine diets. A deficiency of magnesium in the diet in conjunction with any condition that will produce stress can lead to Stress Tetany. An example of a stress-causing condition is transportation of the horse over long distances. […] Some weeks later the same horse was transported to another location. The journey lasted approximately four hours.
Trials conducted where the quantity of magnesium introduced into the horse was varied from 2 g/day of magnesium oxide to 4 g/day of magnesium oxide.

With `[Ca+2]` [Calcium], the “bone development, limb formation and weight gain” value in assay [1] (2.5 to 10.0 g/day Calcium according to age) is “clinically adequate bone development, correct limb formation and normal weight gain”. Besides, the “Average weight at 6 months” value in assay [1] (Foals 3-6 months, 2.5 g/day Calcium, 118 Kg at 3 months) is reported as 240 Kg at 6 months. The “Average weight at 12 months” value in assay [1] (Foals 6-12 months, 5.0 g/day Calcium, 240 Kg at 6 months) is 375 Kg at 12 months. Further, the “Average weight at 18 months” value in assay [1] (Yearlings 12-18 months, 7.5 g/day Calcium, 375 Kg at 12 months) is given as 475 Kg at 18 months.

Consider `O=S(=O)([O-])[O-].[Cu+2]` [Inorganic Copper, copper sulfate], for which, in the assay with thoroughbred yearlings, the coat colour entry is “poor coat colour”, the red cell production entry was “decreased red cell production” and the thrive entry is reported as “lack of thrive”.

Consider `N[C@@H](Cc1cc(I)c(Oc2cc(I)c(O)c(I)c2)c(I)c1)C(=O)O` [Thyroxine], for which the red cell parameters entry in assay [2] is given as “all elevated”.

Regarding `NCCCC[C@H](N)C(=O)O` [lysine], the “coat colour and racecourse performance” value with horses [3] is “optimum coat colour and racecourse performance”. In the assay on horses [3] (average of horses, 500 kg), this compound showed a PCV levels of over 42 per cent per liter and a haemoglobin levels of over 14 g per deciliter.

Consider `[O]=[Mg]` [magnesium oxide], for which the performance entry in the assay on horses [4] (4 g/day of magnesium oxide (varied from 2 g/day to 4 g/day)) is recorded as “optimum performance”. For the same compound, in the assay on horses [4] (magnesium oxide 4 g/day), the “temperament, weight and coat colour” value was “improvement in the temperament of the horse was observed in conjunction with weight gain and better coat colour”.

These data come from US7601373B2, “Equine feed product” (priority 2002, dated 2009).
